Experiments:
Assay type in all cases: cell-based
[1] = test system: TNFα induced U1 cells (HIV IIIB provirus); assay: U1 latent infection assay, supernatant reverse transcriptase activity; details: for % VC / RT ACTIVITY (cpm) MEAN: exp 2; for RT VALUES (cpm) MEAN / X VC: exp 1
Description: (§1) U1 and ACH-2 cells were obtained from the AIDS Research and Reference Reagent Program and maintained under standard culture conditions in RPMI 1640 supplemented with 10% fetal bovine serum (heat inactivated), supplemented with 2 mM […], 100U/ml penicillin and 100 μg/ml, streptomycin. U1 cells were derived from the histocytic leukemia cell line U937, and contain a single integrated copy (HIV IIIB) […] a cytokine and/or phorbol inducible provirus. ACH-2 cells are derived from the A3.01 T lymphoblastic cell line, and contain 2 copies of the HIV IIIB provirus, however only one is cytokine and/or phorbol inducible. Cultures were maintained in such a way as to ensure exponential growth of the populations. At the time of the assay, cells were collected by centrifugation and counted by hemacytometer. If cell viability by Trypan Blue dye exclusion was less than 70% the assay was terminated. The cells were adjusted to 5×10^4 cells/mL and 100 μL, placed in 96 well plates with 100 μL media containing a final concentration of […] TNFα and the test compound. Cultures were incubated for 3 days and supernatants harvested. Compound toxicity was determined by MTS dye reduction. Virus expression was measured by supernatant reverse transcriptasc activity.
(§2) Reverse transcriptase activity was measured in cell-free supernatants. Tritiated thymidine triphosphate (NEN) (TTP) was resuspended in distilled H2O at 5 Ci/mL. Poly rA and oligo dT were prepared as a stock solution which was kept at −20° C. The RT reaction buffer was prepared fresh on a daily basis and consists of 125 μL 1.0 M EGTA, 125 μL dH2O, 110 μL 10% SDS, 50 μL 1.0 M Tris (pH 7.4), 50 μL, 1.0 M DTT, and 40 μL 1.0 M MgCl2. These three solutions were mixed together in a ratio of 2 parts TTP, 1 part poly rA:oligo dT, and 1 part reaction buffer. Ten microliters of this reaction mixture was placed in a round bottom microtiter plate and 15 μL of virus containing supernatant was added and mixed. The plate was incubated at 37° C. in a water bath with a solid support to prevent submersion of the plate and incubated for 60 minutes. Following reaction, the reaction volume was spotted onto pieces of DE81 paper, washed 5 times for 5 minutes each in a 5% sodium phosphate buffer, 2 times for 1 minute each in distilled water, 2 times for 1 minute each in 70% ethanol, and then dried. Opti-Fluor O was added to each sample and incorporated radioactivity was quantitated utilizing a Wallac 1450 Microbetaplus liquid scintillation counter.

[2] = test system: TNFα induced ACH-2 cells (HIV IIIB provirus); assay: ACH-2 latent infection assay, supernatant reverse transcriptase activity
Description: as §1, §2

[3] = test system: HIV RoJo (a clinical isolate); assay: Chronically infected PBMCs, supernatant reverse transcriptase activity
Description: as §2
In these studies PBMCs are infected with HIV RoJo (a clinical isolate) and a dynamic population of infected PBMCs established over a period of 2 to 3 weeks. This population of infected PBMCs was established and maintained by the addition of fresh PBMCs in a 1:1 ratio every 7 days, thus overcoming the lost of PBMCs to normal cell death processes. Thus a population of cells was established that consisted of uninfected cells, short lived infected cells and long lived infected cells. In experiments where AZT was added to prevent re-infection of the population, we typically saw a 50% reduction in infection following a 7 day treatment. This means that 50% of the virus production from the infected […] population was due re-infection. […] Thus there was a population of infected PBMCs present ([…] of the total) which survived for extended periods of time and thus met the definition of being chronically infected.

Zinc Iodiscorbate [Compound Z]
activity in the U1 assay [1]: inactive | % VC ([1]; 0.00063 ug/ml): 110.1% | % VC ([1]; 0.002 ug/ml): 105.4% | RT ACTIVITY (cpm) MEAN ([1]; 0.002 ug/ml): 3245 cpm | % VC ([1]; 0.00625 ug/ml): 99.9% | RT ACTIVITY (cpm) MEAN ([1]; 0.00625 ug/ml): 3077 cpm | % VC ([1]; 0.02 ug/ml): 94.2% | RT ACTIVITY (cpm) MEAN ([1]; 0.02 ug/ml): 2902 cpm | % VC ([1]; 0.0625 ug/ml): 93.9% | RT ACTIVITY (cpm) MEAN ([1]; 0.0625 ug/ml): 2891 cpm | % VC ([1]; 0.2 ug/ml): 101.2% | RT ACTIVITY (cpm) MEAN ([1]; 0.2 ug/ml): 3115 cpm | RT VALUES (cpm) MEAN ([1]; 0.625 ug/ml): 2504.7 cpm | X VC ([1]; 0.625 ug/ml): 106.3 | % VC ([1]; 0.625 ug/ml): 64.4% | RT ACTIVITY (cpm) MEAN ([1]; 0.625 ug/ml): 1984 cpm | RT VALUES (cpm) MEAN ([1]; 2 ug/ml): 2492.7 cpm | X VC ([1]; 2 ug/ml): 105.8 | % VC ([1]; 2 ug/ml): 59.7% | RT ACTIVITY (cpm) MEAN ([1]; 2 ug/ml): 1838 cpm | RT VALUES (cpm) MEAN ([1]; 6.25 ug/ml): 2813.0 cpm | X VC ([1]; 6.25 ug/ml): 119.4 | % VC ([1]; 6.25 ug/ml): 66.9% | RT ACTIVITY (cpm) MEAN ([1]; 6.25 ug/ml): 2059 cpm | RT VALUES (cpm) MEAN ([1]; 20 ug/ml): 2385.7 cpm | X VC ([1]; 20 ug/ml): 101.2 | % VC ([1]; 20 ug/ml): 63.2% | RT ACTIVITY (cpm) MEAN ([1]; 20 ug/ml): 1947 cpm | RT VALUES (cpm) MEAN ([1]; 62.5 ug/ml): 2253.7 cpm | X VC ([1]; 62.5 ug/ml): 95.6 | % VC ([1]; 62.5 ug/ml): 39.78% | RT ACTIVITY (cpm) MEAN ([1]; 62.5 ug/ml): 1225 cpm | RT VALUES (cpm) MEAN ([1]; 200 ug/ml): 802.7 cpm | X VC ([1]; 200 ug/ml): 34.1 | % VC ([1]; 200 ug/ml): 30.84% | RT ACTIVITY (cpm) MEAN ([1]; 200 ug/ml): 950 cpm | IC50 ([1]; U1, exp 2, Table 8): IC50 (uglml) = 43.99 | IC50 ([1]; U1, experiment 1, Table 1): 164 µg/mL | IC50 ([1]; U1, experiment 2, Table 1): 44 µg/mL | IC50 ([1]; U1/TNFα, exp 1, Table 3): IC50 (ug/ml) = ..164.40 | U1 EC50 ([1]; exp 2, Table 4): 44.0 µg/mL | activity in the ACH-2 assay [2]: inactive | % VC ([2]; 0.00063 μg/ml, exp 2): 96.4% | RT ACTIVITY MEAN ([2]; 0.00063 μg/ml, exp 2): 18594 cpm | % VC ([2]; 0.002 μg/ml, exp 2): 106.4% | RT ACTIVITY MEAN ([2]; 0.002 μg/ml, exp 2): 20516 cpm | % VC ([2]; 0.00625 μg/ml, exp 2): 100.6% | RT ACTIVITY MEAN ([2]; 0.00625 μg/ml, exp 2): 19411 cpm | % VC ([2]; 0.02 μg/ml, exp 2): 116.0% | RT ACTIVITY MEAN ([2]; 0.02 μg/ml, exp 2): 22382 cpm | % VC ([2]; 0.0625 μg/ml, exp 2): 111.6% | RT ACTIVITY MEAN ([2]; 0.0625 μg/ml, exp 2): 21532 cpm | % VC ([2]; 0.2 μg/ml, exp 2): 114.0% | RT ACTIVITY MEAN ([2]; 0.2 μg/ml, exp 2): 21983 cpm | % VC ([2]; 0.625 μg/ml, exp 2): 104.2% | RT ACTIVITY MEAN ([2]; 0.625 μg/ml, exp 2): 20108 cpm | % VC ([2]; 2 μg/ml, exp 2): 104.5% | RT ACTIVITY MEAN ([2]; 2 μg/ml, exp 2): 20151 cpm | % VC ([2]; 6.25 μg/ml, exp 2): 60.8% | RT ACTIVITY MEAN ([2]; 6.25 μg/ml, exp 2): 11729 cpm | % VC ([2]; 20 μg/ml, exp 2): 5.1% | RT ACTIVITY MEAN ([2]; 20 μg/ml, exp 2): 982 cpm | % VC ([2]; 62.5 μg/ml, exp 2): 0.83% | RT ACTIVITY MEAN ([2]; 62.5 μg/ml, exp 2): 160 cpm | % VC ([2]; 200 μg/ml, exp 2): 0.41% | RT ACTIVITY MEAN ([2]; 200 μg/ml, exp 2): 80 cpm | % VC ([2]; 0.00063 μG/Ml, exp 1): 107.6% | RT ACTIVITY (cpm) MEAN ([2]; 0.00063 μG/Ml, exp 1): 71887 cpm | % VC ([2]; 0.002 μG/Ml [c9], exp 1): 107.8% | RT ACTIVITY (cpm) MEAN ([2]; 0.002 μG/Ml [c9], exp 1): 71981 cpm | % VC ([2]; 0.002 μG/Ml [c11], exp 1): 107.5% | RT ACTIVITY (cpm) MEAN ([2]; 0.002 μG/Ml [c11], exp 1): 71843 cpm | % VC ([2]; 0.00625 μG/Ml, exp 1): 93.3% | RT ACTIVITY (cpm) MEAN ([2]; 0.00625 μG/Ml, exp 1): 62338 cpm | % VC ([2]; 0.0625 μG/Ml, exp 1): 123.3% | RT ACTIVITY (cpm) MEAN ([2]; 0.0625 μG/Ml, exp 1): 82351 cpm | % VC ([2]; 0.2 μG/Ml, exp 1): 116.0% | RT ACTIVITY (cpm) MEAN ([2]; 0.2 μG/Ml, exp 1): 77521 cpm | % VC ([2]; 0.625 μG/Ml, exp 1): 118.9% | RT ACTIVITY (cpm) MEAN ([2]; 0.625 μG/Ml, exp 1): 79421 cpm | % VC ([2]; 2 μG/Ml, exp 1): 114.0% | RT ACTIVITY (cpm) MEAN ([2]; 2 μG/Ml, exp 1): 76125 cpm | % VC ([2]; 6.25 μG/Ml, exp 1): 112.7% | RT ACTIVITY (cpm) MEAN ([2]; 6.25 μG/Ml, exp 1): 75319 cpm | % VC ([2]; 20 μG/Ml, exp 1): 107.9% | RT ACTIVITY (cpm) MEAN ([2]; 20 μG/Ml, exp 1): 72063 cpm | % VC ([2]; 62.5 μG/Ml, exp 1): 3.27% | RT ACTIVITY (cpm) MEAN ([2]; 62.5 μG/Ml, exp 1): 2186 cpm | % VC ([2]; 200 μG/Ml, exp 1): 2.23% | RT ACTIVITY (cpm) MEAN ([2]; 200 μG/Ml, exp 1): 1487 cpm | IC50 ([2]; ACH2, exp 1, Table 2): IC50 (μG/Ml) = 43.51 | IC50 ([2]; ACH-2, experiment 1, Table 1): 43.5 µg/mL | IC50 ([2]; ACH-2, experiment 2, Table 1): 8.9 µg/mL | ACH2 EC50 ([2]; exp 2, Table 4): 8.9 µg/mL | IC50 in chronically infected PBMCs ([3]; 21 days): approximately 30 μg/ml | Percent Control by Supernatant Reverse Transcriptase activity ([3]; Day 7, 1 μg/ml): 256 Percent Control | Percent Control by Supernatant Reverse Transcriptase activity ([3]; Day 7, 5 μg/ml): 303 Percent Control | Percent Control by Supernatant Reverse Transcriptase activity ([3]; Day 7, 10 μg/ml): 230 Percent Control | Percent Control by Supernatant Reverse Transcriptase activity ([3]; Day 7, 25 μg/ml): 217 Percent Control | Percent Control by Supernatant Reverse Transcriptase activity ([3]; Day 7, 50 μg/ml): 229 Percent Control | Percent Control by Supernatant Reverse Transcriptase activity ([3]; Day 7, 100 μg/ml): 167 Percent Control | Percent Control by Supernatant Reverse Transcriptase activity ([3]; Day 14, 1 μg/ml): 63 Percent Control | Percent Control by Supernatant Reverse Transcriptase activity ([3]; Day 14, 5 μg/ml): 87 Percent Control | Percent Control by Supernatant Reverse Transcriptase activity ([3]; Day 14, 10 μg/ml): 69 Percent Control | Percent Control by Supernatant Reverse Transcriptase activity ([3]; Day 14, 25 μg/ml): 74 Percent Control | Percent Control by Supernatant Reverse Transcriptase activity ([3]; Day 14, 50 μg/ml): 67 Percent Control | Percent Control by Supernatant Reverse Transcriptase activity ([3]; Day 14, 100 μg/ml): 49 Percent Control | Percent Control by Supernatant Reverse Transcriptase activity ([3]; da 21, 1 μg/ml): 80 Percent Control | Percent Control by Supernatant Reverse Transcriptase activity ([3]; da 21, 5 μg/ml): 70 Percent Control | Percent Control by Supernatant Reverse Transcriptase activity ([3]; da 21, 10 μg/ml): 56 Percent Control | Percent Control by Supernatant Reverse Transcriptase activity ([3]; da 21, 25 μg/ml): 60 Percent Control | Percent Control by Supernatant Reverse Transcriptase activity ([3]; da 21, 50 μg/ml): 48 Percent Control | Percent Control by Supernatant Reverse Transcriptase activity ([3]; da 21, 100 μg/ml): 22 Percent Control

Source: patent US20030181436A1, “Treatment for AIDS, HIV, and other related diseases and compounds for use therewith” (priority 2001, published 2003)
